Test results taken from patent publication US20250059191A1, “CRYSTALLINE FORMS OF DIAZABICYCLOOCTANE DERIVATIVE AND PRODUCTION PROCESS THEREOF” (MEIJI SEIKA PHARMA CO., LTD., priority 2013, published 2025).
Blank lines part the entries; values can stand above or below the molecule they belong to.

Legend:
Assay type in all cases: physicochemical
[1] = Stability test of amorphous form and crystalline forms I-IV, 40° C./75% RH, airtight container
Experimental: Crystalline form III of Example 7a were dissolved in water and subjected to lyophilisation to afford (2S,5R)-N-(2-aminoethoxy)-7-oxo-6-(sulfooxy)-1,6-diazabicyclo[3.2.1]octane-2-carboxamide (VII-1) in an amorphous form. The compounds in an amorphous form and crystalline forms I-IV of Examples 5-8 were each weighed in a screw bottle, and stability tests were conducted at each of the temperatures and humidity conditions. The methods of measurement of related substances, content measurement, and water content measurement were as follows.
(§1) Samples were dissolved in water, and these solutions were used as sample solutions. The sample solutions each in the amount of 5 μL were tested under the following conditions by JP16, Liquid Chromatography <2.01>to obtain the amount of each related substance (%) and the total amount of related substances (%), and the content.
(§2) • Column: Waters Atlantis dc18, 5 μm, 4.6×250 mm • Column temperature: a constant temperature of about 35° C. • Injected amount: 5 μL • Detector: an ultraviolet absorption photometer (wavelength: 210 nm) • Mobile phase A: 1.32 g of diammonium hydrogenphosphate was dissolved in 900 mL of water, and phosphoric acid was added to adjust the pH to 3.0. To this was then added water to make 1000 mL. • Mobile phase B: Acetonitrile for liquid chromatography • Gradient program: The mixing ratio of mobile phase A to mobile phase B was controlled as the following time program.
(§3) About 20 mg of the product was precisely measured and tested by JP16, Water Determination <2.48>Coulometric titration.

[2] = Solubility in aqueous isopropanol solution
Text: Crystalline forms I, II and III are distinguished by DSC, solubility in aqueous isopropanol, and lattice spacing in powder X-ray diffraction patterns. […]

[3] = Experiment on crystal transformation (powder X-ray diffraction after stirring suspension or storage)
Experimental: (§4) Crystal transformation in the polymorphism of the compound represented by Formula (VII-1) obtained in the present invention are not observed in a stability test carried out at 40° C. in the solid state or in stirring the suspension in a hydrous solvent for a long time. When crystalline form III of the compound represented by Formula (VII-1) was subjected to an XRD-DSC experiment, heated to 160° C. at 60% RH, and then allowed to cool on standing to 63° C., the crystalline form changed to anhydrous crystalline form over about 145° C., and then returned to the crystalline form III below about 90° C. after cooling. On the basis of these findings, a crystalline form of a compound represented by Formula (VII-1), particularly the crystalline form III constitutes a stable form under ordinary conditions.
A small amount of a suspension of the crystals of Example 6a was taken and stirred at room temperature for one day. The precipitated crystals were collected and subjected to powder X-ray crystal diffraction.
In the step of Example 7a, a small amount was taken out of the suspension immediately after the seeding and of the suspension after the dropwise addition of isopropanol, and each of the taken-out portions was stirred with a stirring bar at room temperature for one day and four days. The precipitated crystals were collected and subjected to powder X-ray crystals diffraction.
Crystalline form IV of Examples 8a-c was taken and isopropanol/water (6/1) was added thereto and suspended and stirred at 25° C. or 40° C. for one week. Samples were taken after 12 hours, 24 hours (one day), 48 hours (two days), 72 hours (three days), 96 hours (four days) and 168 hours (one week), and subjected to powder X-ray crystal diffraction after through-flow drying.

[4] = Stability of crystalline form III in a packaging container; details: polyethylene bag/aluminium laminated bag
Experimental: as §1, §2, §3
Crystalline form III was packaged under the following conditions and stability tests were conducted at each of the temperatures and humidity conditions under analysis conditions of Example 9a. The results are shown in Tables 10-12. • Packaging container • Inner bag: a low-density polyethylene·nylon tie band • Outer bag: an aluminium laminated bag·heat sealed

[5] = XRD-DSC experiment on crystalline form III (crystal transformation by heating)
Experimental: as §4
Crystal transformation by heating in polymorphism of crystalline form III of Example 7a was examined using XRD-DSC. Heating and cooling conditions were as follows: the temperature was elevated at a rate of 2° C./min from room temperature to 160° C. and then cooled to 63° C. under a constant relative humidity (RH) of 60%. DSC and XRD of the samples were successively measured. […]

[6] = 60° C., 4 weeks (text: 1 month)

Content ([1]; 1 month): 93.3%
Total amount of related substances ([1]; 1 month): 6.6%
Water content ([1]; 1 month): 3.3%
Content ([1]; 3 months): 87.5%
Total amount of related substances ([1]; 3 months): 12.3%
Water content ([1]; 3 months): 3.8%
Content ([1]; at start): 99.4%
Total amount of related substances ([1]; at start): 0.5%
Water content ([1]; at start): 1.3%
SMILES: NCCONC(=O)[C@@H]1CC[C@@H]2CN1C(=O)N2OS(=O)(=O)O [Amorphous form, (2S,5R)-N-(2-aminoethoxy)-7-oxo-6-(sulfooxy)-1,6-diazabicyclo[3.2.1]octane-2-carboxamide]

Content ([1]; 1 month): 99.9%
Total amount of related substances ([1]; 1 month): 0.0%
Water content ([1]; 1 month): 5.4%
Content ([1]; 1 month, listed as Form I): 99.9%
Total amount of related substances ([1]; 1 month, listed as Form I): 0.0%
Water content ([1]; 1 month, listed as Form I): 5.4%
Content ([1]; 3 months): 99.8%
Total amount of related substances ([1]; 3 months): 0.1%
Water content ([1]; 3 months): 5.6%
Content ([1]; 3 months, listed as Form I): 99.8%
Total amount of related substances ([1]; 3 months, listed as Form I): 0.1%
Water content ([1]; 3 months, listed as Form I): 5.6%
Content ([1]; at start): 99.9%
Total amount of related substances ([1]; at start): 0.1%
Water content ([1]; at start): 5.4%
Content ([1]; at start, listed as Form I): 99.9%
Total amount of related substances ([1]; at start, listed as Form I): 0.1%
Water content ([1]; at start, listed as Form I): 5.4%
Solubility in aqueous isopropanol, comparison of crystalline forms I, II and III [2]: lowest solubility
Solubility in an aqueous 60% isopropanol solution ([2]; 10° C.): 0.44%
Solubility in an aqueous 60% isopropanol solution ([2]; 20° C.): 0.48%
SMILES: NCCONC(=O)[C@@H]1CC[C@@H]2CN1C(=O)N2OS(=O)(=O)O [Crystalline form I, (2S,5R)-N-(2-aminoethoxy)-7-oxo-6-(sulfooxy)-1,6-diazabicyclo[3.2.1]octane-2-carboxamide]

Content ([1]; 1 month): 99.8%
Total amount of related substances ([1]; 1 month): 0.0%
Water content ([1]; 1 month): 5.6%
Content ([1]; 1 month, listed as Form II): 99.8%
Total amount of related substances ([1]; 1 month, listed as Form II): 0.0%
Water content ([1]; 1 month, listed as Form II): 5.6%
Content ([1]; 3 months): 99.3%
Total amount of related substances ([1]; 3 months): 0.5%
Water content ([1]; 3 months): 5.9%
Content ([1]; 3 months, listed as Form II): 99.3%
Total amount of related substances ([1]; 3 months, listed as Form II): 0.5%
Water content ([1]; 3 months, listed as Form II): 5.9%
Content ([1]; at start): 99.8%
Total amount of related substances ([1]; at start): 0.1%
Water content ([1]; at start): 5.7%
Content ([1]; at start, listed as Form II): 99.8%
Total amount of related substances ([1]; at start, listed as Form II): 0.1%
Water content ([1]; at start, listed as Form II): 5.7%
Solubility in an aqueous 60% isopropanol solution ([2]; 10° C.): 0.67%
Solubility in an aqueous 60% isopropanol solution ([2]; 20° C.): 0.74%
SMILES: NCCONC(=O)[C@@H]1CC[C@@H]2CN1C(=O)N2OS(=O)(=O)O [Crystalline form II, (2S,5R)-N-(2-aminoethoxy)-7-oxo-6-(sulfooxy)-1,6-diazabicyclo[3.2.1]octane-2-carboxamide]
Crystal transformation to a different crystal form ([3]; suspension of the crystals stirred at room temperature for one day, powder X-ray diffraction): No crystal transformation to a different crystal form was observed

Content ([1]; 1 month): 100.0%
Total amount of related substances ([1]; 1 month): 0.0%
Water content ([1]; 1 month): 5.3%
Content ([1]; 1 month, listed as Form III): 100.0%
Total amount of related substances ([1]; 1 month, listed as Form III): 0.0%
Water content ([1]; 1 month, listed as Form III): 5.3%
Content ([1]; 3 months): 99.9%
Total amount of related substances ([1]; 3 months): 0.0%
Water content ([1]; 3 months): 5.5%
Content ([1]; 3 months, listed as Form III): 99.9%
Total amount of related substances ([1]; 3 months, listed as Form III): 0.0%
Water content ([1]; 3 months, listed as Form III): 5.5%
Content ([1]; at start): 99.9%
Total amount of related substances ([1]; at start): 0.0%
Water content ([1]; at start): 5.3%
Content ([1]; at start, listed as Form III): 99.9%
Total amount of related substances ([1]; at start, listed as Form III): 0.0%
Water content ([1]; at start, listed as Form III): 5.3%
Content ([4]; 25° C./60% RH, 3 months): 99.9%
Total amount of related substances ([4]; 25° C./60% RH, 3 months): 0.07%
Water content ([4]; 25° C./60% RH, 3 months): 5.23%
Content ([4]; 25° C./60% RH, at start): 99.9%
Total amount of related substances ([4]; 25° C./60% RH, at start): 0.09%
Water content ([4]; 25° C./60% RH, at start): 5.32%
Content ([4]; 40° C./75% RH, 1 month): 99.9%
Total amount of related substances ([4]; 40° C./75% RH, 1 month): 0.07%
Water content ([4]; 40° C./75% RH, 1 month): 5.51%
Content ([4]; 40° C./75% RH, 2 months): 99.9%
Total amount of related substances ([4]; 40° C./75% RH, 2 months): 0.04%
Water content ([4]; 40° C./75% RH, 2 months): 5.27%
Content ([4]; 40° C./75% RH, 3 months): 99.9%
Total amount of related substances ([4]; 40° C./75% RH, 3 months): 0.06%
Water content ([4]; 40° C./75% RH, 3 months): 5.29%
Content ([4]; 40° C./75% RH, at start): 99.9%
Total amount of related substances ([4]; 40° C./75% RH, at start): 0.09%
Water content ([4]; 40° C./75% RH, at start): 5.20%
Content ([4]; 60° C., 2 weeks): 99.9%
Total amount of related substances ([4]; 60° C., 2 weeks): 0.02%
Water content ([4]; 60° C., 2 weeks): 5.20%
Content [4, 6]: 99.9%
Total amount of related substances [4, 6]: 0.04%
Water content [4, 6]: 5.08%
Content ([4]; 60° C., at start): 99.9%
Total amount of related substances ([4]; 60° C., at start): 0.09%
Water content ([4]; 60° C., at start): 5.20%
Solubility in an aqueous 60% isopropanol solution ([2]; 10° C.): 0.76%
Solubility in an aqueous 60% isopropanol solution ([2]; 20° C.): 0.80%
Temperature at which it returned to the crystalline form III after cooling ([5]; allowed to cool to 63° C. at 60% RH): below 90 °C
Temperature at which the crystalline form changed to anhydrous crystalline form ([5]; heated to 160° C. at 60% RH): over 145 °C
SMILES: NCCONC(=O)[C@@H]1CC[C@@H]2CN1C(=O)N2OS(=O)(=O)O [Crystalline form III, (2S,5R)-N-(2-aminoethoxy)-7-oxo-6-(sulfooxy)-1,6-diazabicyclo[3.2.1]octane-2-carboxamide]
Crystal transformation to a different crystal form ([3]; suspensions after seeding and after isopropanol addition, stirred at room temperature for one day and four days): No crystal transformation to a different crystal form was observed

Content ([1]; 1 month): 99.8%
Total amount of related substances ([1]; 1 month): 0.0%
Water content ([1]; 1 month): 0.1%
Content ([1]; 1 month, listed as Form IV): 99.8%
Total amount of related substances ([1]; 1 month, listed as Form IV): 0.0%
Water content ([1]; 1 month, listed as Form IV): 0.1%
Content ([1]; at start): 99.9%
Total amount of related substances ([1]; at start): 0.0%
Water content ([1]; at start): 0.1%
Content ([1]; at start, listed as Form IV): 99.9%
Total amount of related substances ([1]; at start, listed as Form IV): 0.0%
Water content ([1]; at start, listed as Form IV): 0.1%
SMILES: NCCONC(=O)[C@@H]1CC[C@@H]2CN1C(=O)N2OS(=O)(=O)O [Crystalline form IV, (2S,5R)-N-(2-aminoethoxy)-7-oxo-6-(sulfooxy)-1,6-diazabicyclo[3.2.1]octane-2-carboxamide]
Crystal transformation to a different crystal form ([3]; suspended in isopropanol/water (6/1), stirred at 25° C. or 40° C., 12 hours to one week): No crystal transformation to a different crystal form was observed
